Experimental data taken from US11111249B2, “Heteroaryl-pyrazole derivative, and preparation method therefor and medical application thereof” (Jiangsu Hengrui Medicine Co., Ltd., priority 2017, dated 2021).
pEC50, pIC50: −log10 of the molar value.

What was measured:
human TLR8 = target: T1, human TLR8 (Homo sapiens, UniProt Q9NR97); experiment: Activation of hTLR8 in HEK-Blue hTLR8 stably transfected cells; format: cell-based; conditions: OD 620 nm, 6-16 hours
T1 construct: host or cells: HEK-Blue hTLR8 (HEK293-derived) stably transfected cells
T1 sequence (Q9NR97 27-1041): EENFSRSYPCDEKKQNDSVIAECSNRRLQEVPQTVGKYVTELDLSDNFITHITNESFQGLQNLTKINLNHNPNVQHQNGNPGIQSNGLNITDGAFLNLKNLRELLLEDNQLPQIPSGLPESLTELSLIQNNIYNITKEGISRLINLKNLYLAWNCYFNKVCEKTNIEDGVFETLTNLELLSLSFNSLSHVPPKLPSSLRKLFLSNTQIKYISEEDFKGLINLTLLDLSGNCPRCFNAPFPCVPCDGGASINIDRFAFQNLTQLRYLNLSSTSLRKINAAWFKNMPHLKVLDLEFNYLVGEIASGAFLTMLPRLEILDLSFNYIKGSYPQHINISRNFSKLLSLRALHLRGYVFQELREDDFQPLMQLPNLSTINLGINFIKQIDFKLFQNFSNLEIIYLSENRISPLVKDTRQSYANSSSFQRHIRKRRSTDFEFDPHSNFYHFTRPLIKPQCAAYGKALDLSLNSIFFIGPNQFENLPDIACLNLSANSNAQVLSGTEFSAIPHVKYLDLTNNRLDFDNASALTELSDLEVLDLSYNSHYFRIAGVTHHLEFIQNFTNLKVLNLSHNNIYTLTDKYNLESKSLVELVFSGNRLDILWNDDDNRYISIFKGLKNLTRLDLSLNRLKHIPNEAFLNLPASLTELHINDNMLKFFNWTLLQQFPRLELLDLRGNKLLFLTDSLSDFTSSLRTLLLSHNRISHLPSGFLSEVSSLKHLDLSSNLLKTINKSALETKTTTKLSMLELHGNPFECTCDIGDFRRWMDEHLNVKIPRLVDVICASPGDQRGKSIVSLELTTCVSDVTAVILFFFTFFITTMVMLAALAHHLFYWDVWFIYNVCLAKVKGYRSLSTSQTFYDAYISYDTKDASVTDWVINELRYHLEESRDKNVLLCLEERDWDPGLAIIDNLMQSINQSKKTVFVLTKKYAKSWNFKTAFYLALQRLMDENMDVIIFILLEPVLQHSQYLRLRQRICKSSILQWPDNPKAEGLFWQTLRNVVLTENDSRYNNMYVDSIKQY
Protocol: The activation effect of the compound of the present application on the hTLR7 protein expressed in HEK-Blue™ hTLR7 stably transfected cells and hTLR8 protein expressed in HEK-Blue™ hTLR8 stably transfected cells were determined by the following experimental method:
The HEK-Blue assay medium was configured, HEK-Blue test dry powder was taken and 50 mL deendotoxin water were added to dissolve, then the resulting mixture was placed into the 37° C. incubator, and then filtered aseptically 10 minutes later. […]
The above-prepared compound was diluted 20-fold with a medium, and then 20 μL of the diluted compound were added to each well. HEK-Blue™ hTLR7 cells and HEK-Blue™ hTLR8 cells were taken separately, and the supernatant was removed first, then 2-5 mL pre-warmed PBS was added, placed in an incubator for 1-2 minutes, and the cells were gently pipetted, stained with trypan blue and counted. […]
The microplate reader reads at a wavelength of 620 nm. The corresponding OD value was obtained, and the EC50 value of the drug was calculated by Graphpad Prism. The activation effect of the compound of the present application and the control compound (prepared by the method of embodiment 21 of WO2016023511) on human TLR7 and TLR8 were determined by the above test, and the measured EC50 values were as shown in Table 1.

CYP2D6 = target: T2, CYP2D6 (Homo sapiens, UniProt P10635); experiment: Inhibition of human liver microsome CYP2D6 (dextromethorphan substrate); format: in vitro ADME; conditions: human liver microsomes, 30 minutes, read-out: IC50 for the metabolic site on CYP2D6
T2 construct: Human liver microsomes (Corning Gentest); tissue Corning Gentest; host or cells: human liver microsomes
T2 sequence (P10635 whole entry): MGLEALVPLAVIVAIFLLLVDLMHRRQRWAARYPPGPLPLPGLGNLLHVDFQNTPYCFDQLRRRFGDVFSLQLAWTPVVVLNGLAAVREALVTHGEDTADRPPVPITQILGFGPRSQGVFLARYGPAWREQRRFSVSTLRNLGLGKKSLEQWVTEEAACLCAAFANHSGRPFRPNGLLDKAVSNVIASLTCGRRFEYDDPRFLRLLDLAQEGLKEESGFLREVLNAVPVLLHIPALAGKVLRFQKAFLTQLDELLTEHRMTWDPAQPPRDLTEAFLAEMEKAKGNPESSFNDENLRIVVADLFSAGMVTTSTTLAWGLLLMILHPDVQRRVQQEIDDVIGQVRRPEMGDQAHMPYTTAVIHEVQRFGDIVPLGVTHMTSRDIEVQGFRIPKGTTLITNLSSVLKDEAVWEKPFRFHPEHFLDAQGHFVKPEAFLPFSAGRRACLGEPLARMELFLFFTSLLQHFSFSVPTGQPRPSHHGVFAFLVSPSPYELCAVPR
Protocol: The enzymatic activity of the compound of the present application against human liver microsome CYP2D6 was determined by the following experimental method:
CYP probe substrate (20 μM Dextromethorphan, SIGMA Q0750) and positive control inhibitor (Quinidine, SIGMA D9684).
100 mM PBS buffer was configured, and 2.5 mg/mL microsome solution and 5 mM NADPH solution were prepared with this buffer, and the 5× concentration compound working solution was diluted with PBS (150, 50, 15, 5, 1.5, 0.15, 0.015, 0 μM). The 5× concentration of Quinidine working solution (150, 50, 15, 5, 1.5, 0.15, 0.015, 0 μM) was diluted with PBS. Dextromethorphan working solution was diluted to a concentration of 20 μM with PBS.
20 μL each of 2.5 mg/mL microsome solution, 20 μM Dextromethorphan working solution, MgCl2 solution and compound working solution (150, 50, 15, 5, 1.5, 0.15, 0.015, 0 μM, each concentration was setted differently reaction system) were taken and mixed evenly. The compound was replaced with the same concentration of Quinidine at the positive control group. At the same time, 5 mM NADPH solution was pre-incubated for 5 minutes at 37° C. After 5 minutes, 20 μL NADPH were added into the wells, and the reaction was started and incubated for 30 minutes. All samples were incubated for two samples. […]

SMILES	pEC50 (human TLR8)	pIC50 (CYP2D6)
CCCCOc1nc(N)c2[nH]nc(Cc3ccc(CN4CCCC4)cc3)c2n1 [Embodiment 1, 5-Butoxy-3-(4-(pyrrolidin-1-ylmethyl)benzyl)-1H-pyrazolo[4,3-d]pyrimidin-7-amine]	5.28	< 4.52
CCCCOc1nc(N)c2[nH]cc(Cc3ccc(CN4CCCC4)cc3)c2n1 [Embodiment 21 of WO2016023511]	4.90	5.28
